Measured values taken from patent publication US11839212B2, “Synergistic pesticidal compositions and methods for delivery of insecticidal active ingredients” (0903608 B.C. Ltd., priority 2018, dated 2023).
Like-named read-outs stand apart in the source and are kept apart here.

Columns and labels:
Experiment in all cases: Synergistic Growth Inhibition Assay (MIC and FIC index, 96-well, resazurin)
Type in all cases: cell-based
Alternaria solani = conditions: Alternaria solani, […], read-out: MIC (B)
Procedure: (§1) In some embodiments, the synergistic action between the pesticidal active ingredient, and the at least one C6-C10 (or alternatively C11 or C12) saturated or unsaturated aliphatic acid components of the pesticidal compositions according to embodiments of the present disclosure was tested using a Synergistic Growth Inhibition Assay, which is derived from and related to a checkerboard assay as is known in the art for testing of combinations of antimicrobial agents. In the Synergistic Growth Inhibition Assay used in accordance with some embodiments of the present disclosure, multiple dilutions of combinations of pesticidal active ingredient and at least one C6-C10 saturated or unsaturated aliphatic acid agents are tested in individual cells for inhibitory activity against a target pest or pathogenic organism. In one such embodiment, the combinations of pesticidal active ingredient and C6-C10 (or alternatively C11 or C12) saturated or unsaturated aliphatic acid agents may preferably be tested in decreasing concentrations. In a further such embodiment, the combinations of pesticidal active ingredient and C6-C10 (or alternatively C11 or C12) saturated or unsaturated aliphatic acid agents may be tested in increasing concentrations. These multiple combinations of the pesticidal active ingredient and at least one C6-C10 (or alternatively C11 or C12) saturated or unsaturated aliphatic acid agents may be prepared in 96-well microtiter plates. In one such embodiment, the Synergistic Growth Inhibition Assay then comprises rows which each contain progressively decreasing concentrations of the pesticidal active ingredient and one or more C6-C10 (or alternatively C11 or C12) saturated or unsaturated aliphatic acid agents to test for the MIC of the agents in combination at which growth of the target pest or pathogen is inhibited. Thus, each well of the microtiter plate is a unique combination of the two agents, at which inhibitory efficacy of the combination against the target pest or pathogen can be determined.
(§2) In one embodiment according to the present disclosure, for each row of microtiter cells in the Synergistic Growth Inhibition Assay, the FIC index is calculated from the lowest concentration of the pesticidal active ingredient and one or more C6-C10 saturated or unsaturated aliphatic acid agents necessary to inhibit growth of a target pest or pathogen. The FIC of each component is derived by dividing the concentration of the agent present in that well of the microtiter plate by the minimal inhibitory concentration (MIC) needed of that agent alone to inhibit growth of the target pest or pathogen. The FIC index is then the sum of these values for both agents in that well of the microtiter plate. […] Fractional inhibitory concentration indices may then used as measure of synergy. […] When the FIC index is equal to 1, the combination is additive.
(§3) Then, serial dilutions of these initial compositions in successive wells in the row of the microtiter plate were used to assay the pesticidal composition under the same conditions to determine the concentration of the composition combining the two agents corresponding to the microtiter well in which growth inhibition of the target pest or organism ceases.
A culture of the representative fungal pathogen, namely Fusarium oxysporum, Botrytis cinerea, or Sclerotinia sclerotiorum, for example, is grown to exponential phase in potato dextrose broth (PDB).

Botrytis cinerea = conditions: for MIC: Botrytis cinerea, 48 h
Procedure: as §1, §2, §3
(§4) Similarly to as described above, Resazurin was used as an indicator of growth or inhibition of growth of Botrytis cinerea in the exemplary Synergistic Growth Inhibition Assay. In addition to the color change of the resazurin, an optical or visual examination of the microtiter well may also be made to additionally determine the presence of growth or inhibition of growth of the Botrytis cinerea.

Sclerotinia sclerotiorum = conditions: for MIC: Sclerotinia sclerotiorum
Procedure: as §1, §2, §3
as §4, with “Sclerotinia sclerotiorum” for “Botrytis cinerea”, “Sclerotinia sclerotiorum.” for “Botrytis cinerea.”

Fusarium oxysporum = conditions: for MIC: Fusarium oxysporum
Procedure: as §1, §2, §3
Resazurin dye (also known as Alamar blue dye) was used as an indicator to determine the presence of growth or inhibition of growth of Fusarium oxysporum in the wells of the 96 well microtiter plates used in the exemplary Synergistic Growth Inhibition Assay. In addition to the color change of the resazurin dye in the presence of growth of the Fusarium oxysporum, an optical or visual examination of the microtiter well may also be made to additionally determine the presence of growth or inhibition of growth of the Fusarium oxysporum.

[1] = Compound B alone, 7 days incubation
[2] = Table 51, Compound B alone, 48 hours incubation, read-out: MIC (B)
[3] = Table 56, Compound B alone, 48 hours incubation, read-out: MIC (B)
[4] = Table 59, Compound B alone, 48 hours incubation, read-out: MIC (B)
[5] = Table 20B, Compound A alone, incubation 7 days, read-out: MIC (A)
[6] = Table 23, Compound A alone, incubation 48 hours, read-out: MIC (A)
[7] = 48 h, Table 15B, Compound A alone, incubation 48 hours, read-out: MIC (A)

SMILES: CCCCC(O)C(=O)O (stereo not shown) [2-Hydroxyhexanoic acid]
- MIC (Alternaria solani; [1]): 2500 µg/mL
- MIC (Botrytis cinerea; [2]): 1250 µg/mL

SMILES: CCCCCCCC(O)CC(=O)O (stereo not shown) [3-Hydroxydecanoic acid, 3-hydroxydecanoic acid]
- MIC (Sclerotinia sclerotiorum; Table 16, Compound B alone, incubation 7 days, read-out: MIC (B)): 125 µg/mL
- MIC (Sclerotinia sclerotiorum; Table 20B, Compound B alone, incubation 7 days, read-out: MIC (B)): 62.5 µg/mL
- MIC (Botrytis cinerea; [2]): 62.5 µg/mL
- MIC (Botrytis cinerea; [3]): 125 µg/mL
- MIC (Botrytis cinerea; [4]): 125 µg/mL
- MIC (Fusarium oxysporum; 48 h, Table 10, Compound B alone, incubation 48 hours, read-out: MIC (B)): 250 µg/mL
- MIC (Fusarium oxysporum; 48 h, Table 12, Compound B alone, incubation 48 hours, read-out: MIC (B)): 250 µg/mL
- MIC (Fusarium oxysporum; 48 h, Table 13, Compound B alone, incubation 48 hours, read-out: MIC (B)): 250 µg/mL
- MIC (Fusarium oxysporum; 48 h, Table 15B, Compound B alone, incubation 48 hours, read-out: MIC (B)): 250 µg/mL

SMILES: CCCCCC(O)CC(=O)O (stereo not shown) [3-Hydroxyoctanoic acid]
- MIC (Alternaria solani; [1]): 1250 µg/mL
- MIC (Botrytis cinerea; [2]): 625 µg/mL
- MIC (Botrytis cinerea; [3]): 625 µg/mL
- MIC (Botrytis cinerea; [4]): 625 µg/mL

SMILES: CCCC(C)CC(=O)O (stereo not shown) [3-Methylhexanoic acid]
- MIC (Alternaria solani; [1]): 250 µg/mL
- MIC (Botrytis cinerea; [2]): 125 µg/mL
- MIC (Botrytis cinerea; [4]): 125 µg/mL

SMILES: CCCCCCC(C)CC(=O)O (stereo not shown) [3-Methylnonanoic acid]
- MIC (Alternaria solani; [1]): 62.5 µg/mL

SMILES: CCC(C)CCC(=O)O (stereo not shown) [4-Methylhexanoic acid]
- MIC (Alternaria solani; [1]): 312 µg/mL
- MIC (Botrytis cinerea; [2]): 78.1 µg/mL
- MIC (Botrytis cinerea; [4]): 78.1 µg/mL

SMILES: O=C(O)CCCCCCCCCCCO [12-Hydroxydodecanoic acid]
- MIC (Alternaria solani): 100 µg/mL
- MIC (Botrytis cinerea; read-out: MIC (B), Table 51, Compound B alone, 48 hours incubation): 100 µg/mL
- MIC (Botrytis cinerea; read-out: MIC (B), Table 55, Compound B alone, 48 hours incubation): 100 µg/mL
- MIC (Botrytis cinerea; read-out: MIC (B), Table 56, Compound B alone, 48 hours incubation): 100 µg/mL
- MIC (Botrytis cinerea; read-out: MIC (B), Table 59, Compound B alone, 48 hours incubation): 50 µg/mL

SMILES: CO/C=C(/C(=O)OC)c1ccccc1Oc1cc(Oc2ccccc2C#N)ncn1 [Azoxystrobin, reference compound]
- MIC (A) (Sclerotinia sclerotiorum; Table 17, Compound A alone, incubation 7 days): 150 µg/mL
- MIC (A) (Sclerotinia sclerotiorum; Table 20B, Compound A alone, incubation 7 days): 75 µg/mL
- MIC (A) (Sclerotinia sclerotiorum; Table 35, Compound A alone, 7 days incubation): 150 µg/mL
- MIC (A) (Botrytis cinerea; Table 23, Compound A alone, incubation 48 hours): 75 µg/mL
- MIC (A) (Botrytis cinerea; Table 45, Compound A alone, 48 hours incubation): 75 µg/mL
- MIC (A) (Fusarium oxysporum; Table 11, Compound A alone, incubation 48 hours): 75 µg/mL
- MIC (A) (Fusarium oxysporum; Table 15B, Compound A alone, incubation 48 hours): 150 µg/mL
- MIC (A) (Fusarium oxysporum; Table 28, Compound A alone, 48 hours incubation): 150 µg/mL

SMILES: N#Cc1c(Cl)c(Cl)c(Cl)c(C#N)c1Cl [Chlorothalonil, reference compound]
- MIC (Sclerotinia sclerotiorum; [5]): 0.0312 µg/mL
- MIC (Sclerotinia sclerotiorum; Table 36, Compound A alone, 7 days incubation, read-out: MIC (A)): 0.0312 µg/mL
- MIC (Botrytis cinerea; Table 46, Compound A alone, 48 hours incubation, read-out: MIC (A)): 0.0176 µg/mL
- MIC (Fusarium oxysporum; 48 h, Table 12, Compound A alone, incubation 48 hours, read-out: MIC (A)): 0.125 µg/mL

SMILES: Cc1cc(C2CC2)nc(Nc2ccccc2)n1 [Cyprodinil, reference compound]
- MIC (Botrytis cinerea; [6]): 4.5 µg/mL
- MIC (Botrytis cinerea; Table 26, Compound A alone, 48 hours incubation, read-out: MIC (A)): 4.5 µg/mL
- MIC (Botrytis cinerea; Table 47, Compound A alone, 48 hours incubation, read-out: MIC (A)): 4.5 µg/mL
- MIC (Fusarium oxysporum; 48 h, Table 13, Compound A alone, incubation 48 hours, read-out: MIC (A)): 9 µg/mL
- MIC (Fusarium oxysporum; 48 h, Table 29, Compound A alone, 48 hours incubation, read-out: MIC (A)): 9 µg/mL

SMILES: CC1COC(Cn2cncn2)(c2ccc(Oc3ccc(Cl)cc3)cc2Cl)O1 (stereo not shown) [Difenoconazole, reference compound]
- MIC (Sclerotinia sclerotiorum; Table 20A, Compound A alone, incubation 7 days, read-out: MIC (A)): 12.8 µg/mL
- MIC (Sclerotinia sclerotiorum; [5]): 25.5 µg/mL
- MIC (Sclerotinia sclerotiorum; Table 38, Compound A alone, 7 days incubation, read-out: MIC (A)): 25.5 µg/mL
- MIC (Botrytis cinerea; Table 24, Compound A alone, 48 hours incubation, read-out: MIC (A)): 51 µg/mL
- MIC (Fusarium oxysporum; 48 h, Table 14, Compound A alone, incubation 48 hours, read-out: MIC (A)): 51 µg/mL
- MIC (Fusarium oxysporum; [7]): 51 µg/mL
- MIC (Fusarium oxysporum; 48 h, Table 30, Compound A alone, 48 hours incubation, read-out: MIC (A)): 51 µg/mL

SMILES: COC(=O)N(OC)c1ccccc1COc1ccn(-c2ccc(Cl)cc2)n1 [Pyraclostrobin, pyraclostrobin, reference compound]
- MIC (Sclerotinia sclerotiorum; Table 16, Compound A alone, incubation 7 days, read-out: MIC (A)): 7.5 µg/mL
- MIC (Sclerotinia sclerotiorum; [5]): 3.75 µg/mL
- MIC (Sclerotinia sclerotiorum; Table 33, Compound A alone, 7 days incubation, read-out: MIC (A)): 7.5 µg/mL
- MIC (Sclerotinia sclerotiorum; Table 34, Compound A alone, 7 days incubation, read-out: MIC (A)): 3.75 µg/mL
- MIC (Botrytis cinerea; Table 21, Compound A alone, incubation 48 hours, read-out: MIC (A)): 1.9 µg/mL
- MIC (Botrytis cinerea; [6]): 3.75 µg/mL
- MIC (Botrytis cinerea; Table 43, Compound A alone, 48 hours incubation, read-out: MIC (A)): 1.88 µg/mL
- MIC (Botrytis cinerea; Table 44, Compound A alone, 48 hours incubation, read-out: MIC (A)): 1.88 µg/mL
- MIC (Fusarium oxysporum; 24 h, Table 1, Compound A alone, 24 hour incubation, read-out: MIC(A)): 15.4 µg/mL
- MIC (Fusarium oxysporum; 48 h, Table 10, Compound A alone, incubation 48 hours, read-out: MIC (A)): 15 µg/mL
- MIC (Fusarium oxysporum; [7]): 15 µg/mL
- MIC (Fusarium oxysporum; 48 h, Table 27, Compound A alone, 48 hours incubation, read-out: MIC (A)): 15 µg/mL

SMILES: CC(C)(C)C(O)(CCc1ccc(Cl)cc1)Cn1cncn1 (stereo not shown) [Tebuconazole, reference compound]
- MIC (Sclerotinia sclerotiorum; Table 19, Compound A alone, incubation 7 days, read-out: MIC (A)): 225 µg/mL
- MIC (Sclerotinia sclerotiorum; [5]): 56.2 µg/mL
- MIC (Sclerotinia sclerotiorum; Table 41, Compound A alone, 7 days incubation, read-out: MIC (A)): 112 µg/mL
- MIC (Sclerotinia sclerotiorum; Table 42, Compound A alone, incubation 7 days, read-out: MIC (A)): 112 µg/mL
- MIC (Botrytis cinerea; [6]): 112 µg/mL
- MIC (Botrytis cinerea; Table 25, Compound A alone, 48 hours incubation, read-out: MIC (A)): 112 µg/mL
- MIC (Botrytis cinerea; Table 50, Compound A alone, 48 hours incubation, read-out: MIC (A)): 112 µg/mL
- MIC (Fusarium oxysporum; 48 h, Table 15A, Compound A alone, incubation 48 hours, read-out: MIC (A)): 255 µg/mL
- MIC (Fusarium oxysporum; [7]): 225 µg/mL
- MIC (Fusarium oxysporum; 48 h, Table 32, Compound A alone, 48 hours incubation, read-out: MIC (A)): 225 µg/mL

SMILES: CCC/C=C/C(=O)O [Trans-2-hexenoic acid, trans-2-hexenoic acid]
- MIC (Sclerotinia sclerotiorum; Table 33, Compound B alone, 7 days incubation, read-out: MIC (B)): 156 µg/mL
- MIC (Botrytis cinerea; Table 43, Compound B alone, 48 hours incubation, read-out: MIC (B)): 78.1 µg/mL
- MIC (Botrytis cinerea; Table 44, Compound B alone, 48 hours incubation, read-out: MIC (B)): 39.1 µg/mL
- MIC (Botrytis cinerea; Table 45, Compound B alone, 48 hours incubation, read-out: MIC (B)): 156 µg/mL
- MIC (Botrytis cinerea; Table 52, Compound B alone, 48 hours incubation, read-out: MIC(B)): 156 µg/mL
- MIC (Botrytis cinerea; [3]): 312 µg/mL
- MIC (Fusarium oxysporum; 24 h, Table 1, Compound B alone, 24 hour incubation, read-out: MIC(B)): 312 µg/mL
- MIC (Fusarium oxysporum; 24 h, Table 2, Compound B alone, 24 hour incubation, read-out: MIC (B)): 312 µg/mL
